Experimental data published in publication PMC9169222, “Impedance-Based Phenotypic Readout of Transporter Function: A Case for Glutamate Transporters” (Frontiers in Pharmacology, 2022).
Entries after “also recorded” stand apart in the source; their conditions may differ. Structures can show the parent of a compound that is named as a salt.

Key:
[1] = biological target: T1, EAAT1 (JumpIn-EAAT1 cells) (Homo sapiens, UniProt P43003); assay: Impedance-based phenotypic assay (xCELLigence) on JumpIn-EAAT1 cells; type: cell-based; details: net AUC 0–120 min
T1 construct: expressed in transfected cells; host or cells: Jump In T-REx HEK 293
Method: In short, cells are cultured in medium on gold-plated electrodes in microwell E-plates.
Assays were performed at 37°C and 5% CO2 in 96-well PET E-plates in a total volume of 100 µl per well. Prior to cell seeding, the baseline impedance (Z0) was measured in the recording station in 40 µl (two compound additions) or 45 µl (one compound addition) medium in the presence (+) or absence (−) of 1 μg/ml dox. All compounds were diluted in phosphate-buffered saline (PBS) and added in 5 µl per addition using a VIAFLO 96 handheld electronic 96 channel pipette (INTEGRA Biosciences, Tokyo, Japan). When DMSO was used as a solvent for a compound, the final amount of DMSO was kept at 0.1% per well and was included in the vehicle (PBS/DMSO). All conditions were tested at two technical replicates per plate.
Transiently transfected JumpIn-EAAT1 cells were detached using only PBS/EDTA. The E-plate was left to rest at room temperature for 30 min prior to replacement in the recording station at 37°C and 5% CO2. Cell growth was recorded overnight for 22 h. If a pretreatment was required for the experiment, the cells were pretreated after 22 h with either a concentration of inhibitor or vehicle (PBS/DMSO) and cells were monitored for 60 min. For GPCR antagonist experiments, a maximum concentration of LY341495 (1 µM) was used. […] After the pretreatment, cells were stimulated with substrate or vehicle (PBS). […] After stimulation the impedance was measured for at least 2 h. […] Properly washed plates were re-used up to two times.
Experimental data was recorded using RTCA Software v2.0 or v2.1.1 (ACEA Biosciences). In the RTCA Software CI values were normalized to the time point prior to substrate/agonist stimulation resulting in normalized Cell Index (nCI) values. The nCI data were exported and subsequent analyses and data visualizations were done using GraphPad Prism v9 (GraphPad Software, San Diego, CA, United States). In all experiments, nCI values of vehicle-only conditions were subtracted from all other conditions to correct for vehicle-induced, substrate-independent effects. […] The potency values of substrates and inhibitory potencies of EAAT inhibitors were determined by fitting the net AUC data to a sigmoidal concentration-effect curve with a variable slope.

1321N1 cells = assay: Impedance-based phenotypic assay on 1321N1 cells; type: cell-based, human; details: 1 mM
Method: Label-free whole-cell assays, based on cell-induced changes in impedance, were performed using the xCELLigence real-time cell analyzer (RTCA) system (ACEA Biosciences, San Diego, CA, United States) as described previously ([Vlachodimou et al., 2019]; [Sijben et al., 2021a], [2021b]). In short, cells are cultured in medium on gold-plated electrodes in microwell E-plates. Per well impedance is continuously measured at 10 kHz and is converted to the unitless parameter Cell Index (CI) by the following formula: CI=(Zi−Z0)Ω/15Ω where Zi is the impedance at any given time point and Z0 is the baseline impedance measured at the start of each experiment ([Kho et al., 2015]).
Assays were performed at 37°C and 5% CO2 in 96-well PET E-plates in a total volume of 100 µl per well. Prior to cell seeding, the baseline impedance (Z0) was measured in the recording station in 40 µl (two compound additions) or 45 µl (one compound addition) medium in the presence (+) or absence (−) of 1 μg/ml dox. […]
Experimental data was recorded using RTCA Software v2.0 or v2.1.1 (ACEA Biosciences). […] The potency values of substrates and inhibitory potencies of EAAT inhibitors were determined by fitting the net AUC data to a sigmoidal concentration-effect curve with a variable slope.

[2] = system: JumpIn-EAAT1-LifeAct-GFP cells; assay: Automated confocal microscopy of the actin cytoskeleton (cell spreading); type: cell-based, human; details: dox-induced cells, 1 mM, within 2 h
Method: For visualization of the actin cytoskeleton, JumpIn-EAAT1 cells were transduced with a lentiviral GFP-LifeAct cDNA expression vector and were maintained in culture medium containing 2 μg/ml puromycin to select for successfully transduced cells.
JumpIn-EAAT1-LifeAct-GFP cells were seeded at 20,000 cells/well on a SCREENSTAR black-walled clear-bottom 96-well culture plate in 90 µl culture medium and grown for 24 h at 37°C and 5% CO2. […] Microscopy was performed on a Nikon Eclipse Ti2 C2+ confocal microscope (Nikon, Amsterdam, Netherlands). This system was equipped with a 37°C incubation chamber, an automated xy-stage, an integrated Perfect Focus System (PFS) and 408, 488, and 561 nm lasers. The system was controlled by Nikon’s NIS software. All images were acquired using a Plan-Apochromat ×20 objective with 0.75 NA, at a resolution of 512 × 512 pixels.

JumpIn-EAAT1 cells = assay: Targeted metabolomics (LC-MS/MS) of intracellular metabolite levels; type: cell-based, human; details: 1 mM substrate, 2 h
Method: JumpIn-EAAT1 cells were plated at 150,000 cells/well in 24 well poly-L-lysine coated plates in culture medium in the absence (−dox) or presence (+dox) of 1 μg/ml doxycycline and grown at 37°C and 5% CO2. After 24 h, the medium was refreshed and cells were pretreated with vehicle (PBS/DMSO) or 10 µM TFB-TBOA. […] For lysis, cells were first gently washed with room temperature bicarbonate buffer (91 mM NH4HCO3, pH 7.4). […] The cells were then scraped and transferred to a pre-cooled Eppendorf tube and immediately snap frozen in liquid nitrogen. Samples were thawed on ice before being centrifuged at 16,000 × g for 10 min at 4°C. The clarified metabolite-containing supernatants were moved into a high-performance liquid chromatography vial and stored at −80°C until LC-MS/MS analysis.
Cell extracts were dried using a nitrogen evaporator. The dry residue was reconstituted in 16 µl H2O and 4 µl of sample extract was used for LC-MS/MS analysis. […] The column was maintained at a temperature of 40°C and 4 µl of sample was injected per run. The mobile phase A was 3% MeOH (v/v), 10 mM tributylamine, 15 mM acetic acid in H2O, and mobile phase B was 10 mM tributylamine, 15 mM acetic acid in MeOH. The gradient elution with a flow rate 0.25 mL/min was performed for a total time of 24 min. […] The metabolites of interest were detected using a dynamic Multiple Reaction Monitoring (MRM) mode. The MassHunter 10.0 software (Agilent Technologies) was used for the data processing. Ten-point linear calibration curves with internal standardization were constructed for the quantification of metabolites.
Volcano plots were generated to visualize the significant up- or downregulation of intracellular metabolite concentrations. The log2 fold change upon substrate addition is plotted against the −log10 adjusted p-value.

T1 sequence (P43003 whole entry): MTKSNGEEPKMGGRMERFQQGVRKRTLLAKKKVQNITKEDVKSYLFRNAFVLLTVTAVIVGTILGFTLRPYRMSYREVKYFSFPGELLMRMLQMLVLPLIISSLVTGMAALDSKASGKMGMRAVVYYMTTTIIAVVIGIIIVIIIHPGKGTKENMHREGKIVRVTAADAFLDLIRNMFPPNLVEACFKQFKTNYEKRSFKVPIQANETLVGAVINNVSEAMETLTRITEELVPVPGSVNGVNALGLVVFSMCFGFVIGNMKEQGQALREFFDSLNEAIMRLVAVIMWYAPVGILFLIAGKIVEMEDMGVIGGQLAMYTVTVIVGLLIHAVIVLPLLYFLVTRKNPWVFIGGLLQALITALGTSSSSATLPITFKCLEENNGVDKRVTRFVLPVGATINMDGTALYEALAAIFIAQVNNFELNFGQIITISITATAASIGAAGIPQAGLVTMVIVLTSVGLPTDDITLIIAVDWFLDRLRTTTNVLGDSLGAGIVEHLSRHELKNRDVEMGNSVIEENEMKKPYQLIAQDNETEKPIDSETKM

## N[C@@H](CCC(=O)O)C(=O)O [L-glutamate, L-glutamic acid monosodium salt monohydrate]
[1]; JumpIn-EAAT1, +dox
  Substrate pEC50 ± SEM: 3.4 ± 0.0
[1]; JumpIn-EAAT1, −dox, read-out: Substrate pEC50 ± SEM (converted)
  EC50: 63.1 µM
1321N1 cells
  Cellular response within 180 min: did not show a substantial cellular response
[2]
  Change in cell morphology after stimulation: drastically extend their actin cytoskeleton outward
JumpIn-EAAT1 cells
  Intracellular cAMP levels: significant elevations
  Intracellular glutamine level: not significantly altered
  Levels of TCA cycle intermediates and related metabolites: increased
JumpIn-EAAT1 cells; +dox
  Increase of intracellular aspartate: 5 fold
  Increase of intracellular glutamate: 5 fold
  Intracellular taurine level: significantly reduced; also recorded: significant decrease
